Results from patent US20230210999A1, “TARGETED PROTEASE DEGRADATION (TED) PLATFORM” (EUBULUS BIOTHERAPEUTICS INC., priority 2020, published 2023).
Where two headings read alike, the source gives them in different places.

Key:
Assay type in all cases: cell-based, human
MV4;11 cells = test: Cell proliferation experiment (Alamar blue, 72 h), MV4;11; conditions: read-out: Inhibitory activity IC50 on MV4;11
Procedure: (§1) Reagents: RPMI-1640 medium, McCoy's 5A medium, IMDM medium, MEM medium, L-15 medium, fetal bovine serum. Penicillin-Streptomycin double antibody, trypsin, etc., 2-mercaptoethanol, NEAA, pyruvate, etc.
(§2) The cells were cultured in conventional ways, and the cells should be passed at least 2 generations before plating. Cells at the logarithmic growth phase were collected, prepared into single cell suspensions and counted. The concentration of cells was adjusted to the desired concentration, and cells were inoculated into a 96-well cell culture plate at 100 μl per well. 100 μL of complete medium of the test compound were added to each well, set up 2 duplicate wells for each concentration, and diluted with a 5-fold gradient, and continued to culture for 72 h. All cells were subjected to IC50 test for corresponding samples. The experimental results are shown in Test Example 4.
(§3) The fluorescence intensity of each well was detected using the Alarm blue method, and IC50 was calculated.
(§4) IC50 was calculated according to the following formula:
(§5) Y=Max+(Min−Max)/[1+(X/IC50)×Slope]
(§6) wherein Min, Max and Slope represent the minimum, maximum and slope respectively.

Daudi cells = test: Cell proliferation experiment, Daudi; conditions: Daudi cells, read-out: Inhibitory activity IC50 on Daudi
Procedure: as §1, §2, §3, §4, §5, §6

NCIH82 cells = test: Cell proliferation experiment, NCI-H82; conditions: read-out: Inhibitory activity IC50 on NCI-H82
Procedure: as §1, §2, §3, §4, §5, §6

[1] = Homo sapiens, MV4-11, MV4;11 cells
[2] = Homo sapiens, NCI-H82, NCI-H82 cells

Compound | IC50 (MV4;11 cells; [1]) [nM] | IC50 (Daudi cells; Homo sapiens, Daudi) [nM] | IC50 (NCIH82 cells; [2]) [nM] | IC50 (MV4;11 cells; MV4;11 cells) [nM] | IC50 (Daudi cells) [nM] | IC50 (NCIH82 cells; NCI-H82 cells) [nM]
O=C1CCC(N2Cc3cc(NC(=O)CNCCOCCOCCOCCn4cc(-c5ccc(Nc6ncc7c(n6)-c6ccc(Cl)cc6C(c6c(F)cccc6F)=NC7)cc5)nn4)ccc3C2=O)C(=O)N1 (stereo not drawn) [UB-180976] | 100 to 1000 | > 1000 | > 1000 |  |  | 
O=C1CCC(N2Cc3cc(NC(=O)CCOCCOCCN[C@H]4CC[C@@H](n5cc(-c6ccc(Nc7ncc8c(n7)-c7ccc(Cl)cc7C(c7c(F)cccc7F)=NC8)cc6)nn5)CC4)ccc3C2=O)C(=O)N1 (stereo partly drawn) [UB-180981] | > 1000 | > 1000 | > 1000 |  |  | 
O=C1CCC(N2Cc3cc(NC(=O)CCCCCCCNCCCn4cc(-c5ccc(Nc6ncc7c(n6)-c6ccc(Cl)cc6C(c6c(F)cccc6F)=NC7)cc5)nn4)ccc3C2=O)C(=O)N1 (stereo not drawn) [UB-180982] | 100 to 1000 | > 1000 | > 1000 |  |  | 
O=C1CCC(N2Cc3cc(NC(=O)CCCCCCCNCCn4cc(-c5ccc(Nc6ncc7c(n6)-c6ccc(Cl)cc6C(c6c(F)cccc6F)=NC7)cc5)nn4)ccc3C2=O)C(=O)N1 (stereo not drawn) [UB-180983] | 10 to 100 | 100 to 1000 | 100 to 1000 |  |  | 
O=C1CCC(N2Cc3c(NC(=O)CCCCCCCNCCCn4cc(-c5ccc(Nc6ncc7c(n6)-c6ccc(Cl)cc6C(c6c(F)cccc6F)=NC7)cc5)nn4)cccc3C2=O)C(=O)N1 (stereo not drawn) [UB-180987] | > 1000 | > 1000 | > 1000 |  |  | 
O=C1CCC(N2Cc3c(NC(=O)CCCCCCCN[C@H]4CC[C@@H](n5cc(-c6ccc(Nc7ncc8c(n7)-c7ccc(Cl)cc7C(c7c(F)cccc7F)=NC8)cc6)nn5)CC4)cccc3C2=O)C(=O)N1 (stereo partly drawn) [UB-180988] | > 1000 | > 1000 | > 1000 |  |  | 
O=C1CCC(N2Cc3cc(NC(=O)CCCCCCCN[C@H]4CC[C@@H](n5cc(-c6ccc(Nc7ncc8c(n7)-c7ccc(Cl)cc7C(c7c(F)cccc7F)=NC8)cc6)nn5)CC4)ccc3C2=O)C(=O)N1 (stereo partly drawn) [UB-180989] | > 1000 | > 1000 | > 1000 |  |  | 
O=C1CCC(N2Cc3c(NC(=O)CCCCCCCCCNCCn4cc(-c5ccc(Nc6ncc7c(n6)-c6ccc(Cl)cc6C(c6c(F)cccc6F)=NC7)cc5)nn4)cccc3C2=O)C(=O)N1 (stereo not drawn) [UB-180990] | 100 to 1000 | > 1000 | > 1000 |  |  | 
O=C1CCC(N2Cc3cc(NC(=O)CCNCCOCCOCCn4cc(-c5ccc(Nc6ncc7c(n6)-c6ccc(Cl)cc6C(c6c(F)cccc6F)=NC7)cc5)nn4)ccc3C2=O)C(=O)N1 (stereo not drawn) [UB-180991] | 100 to 1000 | > 1000 | > 1000 |  |  | 
O=C1CCC(N2Cc3cc(NC(=O)CCNCCOCCOCCn4cc([C@]5(Cc6cccc(Nc7nccs7)n6)CC[C@@H](Oc6cccc(Cl)c6F)CC5)nn4)ccc3C2=O)C(=O)N1 (stereo partly drawn) [UB-180994] | 100 to 1000 | > 1000 | > 1000 |  |  | 
O=C1CCC(N2Cc3cc(NC(=O)CCCCCCCCCNCCn4cc([C@]5(Cc6cccc(Nc7nccs7)n6)CC[C@@H](Oc6cccc(Cl)c6F)CC5)nn4)ccc3C2=O)C(=O)N1 (stereo partly drawn) [UB-180995] | > 1000 | > 1000 | > 1000 |  |  | 
O=C1CCC(N2Cc3c(NC(=O)CCCCCCCCCN[C@H]4CC[C@@H](n5cc(-c6ccc(Nc7ncc8c(n7)-c7ccc(Cl)cc7C(c7c(F)cccc7F)=NC8)cc6)nn5)CC4)cccc3C2=O)C(=O)N1 (stereo partly drawn) [UB-180996] | > 1000 | > 1000 | > 1000 |  |  | 
O=C1CCC(N2Cc3c(NC(=O)CCCCCCCCCN[C@H]4CC[C@@H](n5cc(-c6ccc(Nc7ncc8c(n7)-c7ccc(Cl)cc7C(c7c(F)cccc7F)=NC8)cc6)nn5)CC4)cccc3C2=O)C(=O)N1 (stereo partly drawn) [UB-180997] |  |  |  | > 1000 | > 1000 | > 1000
O=C1CCC(N2Cc3cc(NC(=O)CCNCCCOCCCCn4cc(-c5ccc(Nc6ncc7c(n6)-c6ccc(Cl)cc6C(c6c(F)cccc6F)=NC7)cc5)nn4)ccc3C2=O)C(=O)N1 (stereo not drawn) [UB-181000] | > 1000 | > 1000 | > 1000 |  |  | 
O=C1CCC(N2Cc3cc(NC(=O)CCNCCCOCCCCn4cc([C@]5(Cc6cccc(Nc7nccs7)n6)CC[C@@H](Oc6cccc(Cl)c6F)CC5)nn4)ccc3C2=O)C(=O)N1 (stereo partly drawn) [UB-181001] | > 1000 | > 1000 | > 1000 |  |  | 
O=C1CCC(N2Cc3c(NC(=O)CCCCCCCCCNCCn4cc([C@]5(Cc6cccc(Nc7nccs7)n6)CC[C@@H](Oc6cccc(Cl)c6F)CC5)nn4)cccc3C2=O)C(=O)N1 (stereo partly drawn) [UB-181002] | > 1000 | > 1000 | > 1000 |  |  | 
O=C1CCC(N2Cc3c(NC(=O)CCNCCOCCOCCn4cc([C@]5(Cc6cccc(Nc7nccs7)n6)CC[C@@H](Oc6cccc(Cl)c6F)CC5)nn4)cccc3C2=O)C(=O)N1 (stereo partly drawn) [UB-181003] | 100 to 1000 | > 1000 | > 1000 |  |  | 

Compound | IC50 (MV4;11 cells; [1]) [nM] | IC50 (Daudi cells; Homo sapiens, Daudi) [nM] | IC50 (NCIH82 cells; [2]) [nM] | IC50 (MV4;11 cells; MV4;11 cells) [nM] | IC50 (Daudi cells) [nM] | IC50 (NCIH82 cells; NCI-H82 cells) [nM]
O=C1CCC(N2Cc3cc(NC(=O)CCOCCOCC(O)COCCn4cc(-c5ccc(Nc6ncc7c(n6)-c6ccc(Cl)cc6C(c6c(F)cccc6F)=NC7)cc5)nn4)ccc3C2=O)C(=O)N1 (stereo not drawn) [UB-181005] |  | > 1000 |  | > 1000 |  | > 1000
O=C1CCC(N2Cc3cc(NC(=O)CCOCCOCCOCCN[C@H]4CC[C@@H](NC(=O)c5ccc(Nc6ncc7c(n6)-c6ccc(Cl)cc6C(c6c(F)cccc6F)=NC7)cc5)CC4)ccc3C2=O)C(=O)N1 (stereo partly drawn) [UB-181006] | > 1000 | > 1000 | > 1000 |  |  | 
NC(COCCCCCCCC(=O)Nc1ccc2c(c1)CN(C1CCC(=O)NC1=O)C2=O)Cn1cc(-c2ccc(Nc3ncc4c(n3)-c3ccc(Cl)cc3C(c3c(F)cccc3F)=NC4)cc2)nn1 (stereo not drawn) [UB-181007] | 100 to 1000 | 100 to 1000 | > 1000 |  |  | 
O=C1CCC(N2Cc3cc(NC(=O)CNCCCOCCCCCn4cc(-c5ccc(Nc6ncc7c(n6)-c6ccc(Cl)cc6C(c6c(F)cccc6F)=NC7)cc5)nn4)ccc3C2=O)C(=O)N1 (stereo not drawn) [UB-181008] | 100 to 1000 | 100 to 1000 | > 1000 |  |  | 
O=C1CCC(N2Cc3cc(NC(=O)CNCCCOCCCCCn4cc([C@]5(Cc6cccc(Nc7nccs7)n6)CC[C@@H](Oc6cccc(Cl)c6F)CC5)nn4)ccc3C2=O)C(=O)N1 (stereo partly drawn) [UB-181009] | 100 to 1000 | > 1000 | > 1000 |  |  | 
O=C1CCC(N2Cc3cc(C#CCCOCCOCCOCCNC4CCC(n5cc(-c6ccc(Nc7ncc8c(n7)-c7ccc(Cl)cc7C(c7c(F)cccc7F)=NC8)cc6)nn5)CC4)ccc3C2=O)C(=O)N1 (stereo not drawn) [UB-181010] | 100 to 1000 | > 1000 | > 1000 |  |  | 
O=C1CCC(N2Cc3cc(NC(=O)CNCCCCOCCCCn4cc(-c5ccc(Nc6ncc7c(n6)-c6ccc(Cl)cc6C(c6c(F)cccc6F)=NC7)cc5)nn4)ccc3C2=O)C(=O)N1 (stereo not drawn) [UB-181011] | 100 to 1000 | 10 to 100 | > 1000 |  |  | 
O=C1CCC(N2Cc3cc(C#CCCNCCOCCOCCn4cc(-c5ccc(Nc6ncc7c(n6)-c6ccc(Cl)cc6C(c6c(F)cccc6F)=NC7)cc5)nn4)ccc3C2=O)C(=O)N1 (stereo not drawn) [UB-181012] | 100 to 1000 | > 1000 | > 1000 |  |  | 
O=C1CCC(N2Cc3c(NC(=O)CNCCCCOCCCCNC(=O)[C@]4(Cc5cccc(Nc6nccs6)n5)CC[C@@H](Oc5cccc(Cl)c5F)CC4)cccc3C2=O)C(=O)N1 (stereo partly drawn) [UB-181013] | 100 to 1000 | > 1000 | > 1000 |  |  | 
O=C1CCC(N2Cc3c(C#CCCNCCOCCOCCNC(=O)[C@]4(Cc5cccc(Nc6nccs6)n5)CC[C@@H](Oc5cccc(Cl)c5F)CC4)cccc3C2=O)C(=O)N1 (stereo partly drawn) [UB-181014] | 100 to 1000 | > 1000 | > 1000 |  |  | 
O=C1CCC(N2Cc3cc(C#CCCNCCOCCOCCNC(=O)[C@]4(Cc5cccc(Nc6nccs6)n5)CC[C@@H](Oc5cccc(Cl)c5F)CC4)ccc3C2=O)C(=O)N1 (stereo partly drawn) [UB-181015] | 100 to 1000 | > 1000 | > 1000 |  |  | 
O=C1CCC(N2Cc3cc(NC(=O)CCOCCOCCNCCn4cc(-c5ccc(Nc6ncc7c(n6)-c6ccc(Cl)cc6C(c6c(F)cccc6F)=NC7)cc5)nn4)ccc3C2=O)C(=O)N1 (stereo not drawn) [UB-181016] | 100 to 1000 | > 1000 | > 1000 |  |  | 
O=C1CCC(N2Cc3cc(NC(=O)CNCCCOCCCCCNC(=O)[C@]4(Cc5cccc(Nc6nccs6)n5)CC[C@@H](Oc5cccc(Cl)c5F)CC4)ccc3C2=O)C(=O)N1 (stereo partly drawn) [UB-181017] | 100 to 1000 | > 1000 | > 1000 |  |  | 
O=C1CCC(N2Cc3cc(NC(=O)CCOCCOCCNCCNC(=O)[C@]4(Cc5cccc(Nc6nccs6)n5)CC[C@@H](Oc5cccc(Cl)c5F)CC4)ccc3C2=O)C(=O)N1 (stereo partly drawn) [UB-181018] | > 1000 | > 1000 | > 1000 |  |  | 
O=C1CCC(N2Cc3cc(NC(=O)CNCCCCOCCCCNC(=O)[C@]4(Cc5cccc(Nc6nccs6)n5)CC[C@@H](Oc5cccc(Cl)c5F)CC4)ccc3C2=O)C(=O)N1 (stereo partly drawn) [UB-181019] | 100 to 1000 | > 1000 | > 1000 |  |  | 
O=C1CCC(N2Cc3cc(NC(=O)CNCCCOCCOCCn4cc(-c5ccc(Nc6ncc7c(n6)-c6ccc(Cl)cc6C(c6c(F)cccc6F)=NC7)cc5)nn4)ccc3C2=O)C(=O)N1 (stereo not drawn) [UB-181020] | 100 to 1000 | > 1000 | > 1000 |  |  | 
O=C1CCC(N2Cc3c(C#CCCNCCOCCOCCn4cc(-c5ccc(Nc6ncc7c(n6)-c6ccc(Cl)cc6C(c6c(F)cccc6F)=NC7)cc5)nn4)cccc3C2=O)C(=O)N1 (stereo not drawn) [UB-181027] | > 1000 | > 1000 | > 1000 |  |  | 
